Reference: patent US12043602B2, “Fendiline derivatives” (The Board of Regents of the University of Texas System, priority 2019, dated 2024)
Entries after “also recorded” stand apart in the source; their conditions may differ. Where two headings read alike, the source gives them in different places. Values belong to the molecule of their own block, whether it stands above or below them.

Assays:
[1] = test system: MOH (Mut) pancreatic tumor cells; assay: CyQUANT proliferation assay; type: cell-based
Description: Madine Darby Canine Kidney epithelial cells (MDCK) stably co-expressing mGFP-tagged full length oncogenic mutant K-Ras (GFP—K-RASG12V) or mGFP-LactC2 (peptide probe for phosphatidylserine) and mCherry-tagged to the amino acids 179-189 of H-RasC181S, C184S (mCherry-CAAX, localizes primarily to endomembranes) were grown in DMEM-high glucose/sodium pyruvate/10% FBS. The medium was supplemented with 1× Penicillin/Streptomycin for fluorescence microscopy assays, to avoid any microbial contamination from the test compounds added. KLE and Hec50 cells were maintained in DMEM-F-12 medium supplemented with 10% FBS. Hec-1A and Hec-1B cells were grown in McCoy's 5a medium supplemented with 10% FBS. ESS-1 cells were grown in RPMI 1640 medium supplemented with 20% FBS. MPanc96 cells were grown in DMEM supplemented with 10% FBS, MiaPaCa-2 cells in DMEM supplemented with 10% FBS and 2.5% horse serum and all other cell lines were grown in RPMI 1640 supplemented with 10% FBS. All cancer cell media were supplemented with ×Penicillin/Streptomycin. All cell lines were grown at 37° C. with 5% CO2.
Cells were seeded in 96-well plates. After 24 h, fresh growth medium supplemented with 0.1% vehicle (DMSO), or various concentrations of drugs was added and cells were grown for 72 h. Cell numbers were quantified using the CyQUANT® Cell Proliferation Assay Kit (Molecular Probes, Life Technologies), according to the manufacturer's protocol. Fluorescence measurement was used as a measure of live cell number.

MiaPaCa-2 tumors = assay: In vivo tumor growth assay (xenograft); parameters: species or system nu/nu mice; settings: for minimum effective dose on tumor growth relative to fendiline: MiaPaCa2 xenografts in nude mice; for growth of MiaPaCa-2 xenografts: intraperitoneally, once daily 5 days on / 2 days off, doses 1-12.5 mg/kg
Description: In Vivo Tumor Growth Assay. All animal studies were performed under an Institutional Animal Care and Use Committee (IACUC) approved animal protocol (AWC-15-0101), in accordance with the National Institutes of Health Guide for the Care and Use of Laboratory Animals. Early passage MiaPaCa-2 cells were harvested, and 2×10^6 cells were implanted into the right flanks of female nu/nu mice. The animals were randomized into control and treated groups (10 mice per group). Tumor volume (V) was measured with an external caliper every 3-4 days and it was calculated as V=0.52 (length×width2). Compound treatment was initiated when the tumor sizes reached 100 mm3. Compounds (12.5 mg/kg) were injected daily intraperitoneally for 5 days, with 2 days of no treatment in between. All treatments were continued until any of the subcutaneous tumors reached 1500 mm3 in volume, when all the animals were sacrificed, and the tumors removed.
Early passage BxPC-3 or MIAPaCa-2 cells were harvested, and 2-3X106 cells were implanted into the right flanks of nu/nu mice. The animals were randomized into control and treated groups (10 mice per group). Tumor volume (V) was measured with an external caliper every 3-4 days and it was calculated as V=0.52 (length×width2). Drug treatment was initiated 4 days after tumor implantation. Drugs were injected daily intraperitoneally (at doses indicated) for 5 days, with 2 days of no treatment in between. All treatments were continued until any of the subcutaneous tumors reached 1500 mm3 in volume or for 6 weeks (whichever was first), when all the animals were sacrificed and the tumors removed.
Next the effect of the selected PMLIs on the growth of oncogenic KRAS expressing MiaPaCa-2 cells implanted subcutaneously into the flanks of nu/nu immunosuppressed mice was determined. […] The animals were randomized into control and PMLI-treated groups (10 mice per group). Treatment was initiated when the tumors reached a mean volume of 100 mm^3. PMLIs were tested at 12.5, 7.5, 5, 2.5 and 1 mg/kg doses, administered once daily intraperitoneally for 5 days, with 2 days of no treatment in between for the duration of the experiment. […] There was no observed toxicity detected in any of the compound-treated groups during the experiment and, accordingly, there was no significant difference in the body weight of the animals in the different groups.

pERK = assay: Immunohistochemistry of tumor sections, pERK; parameters: species or system nu/nu mice; settings: mouse, in vivo
Description: (§1) Immunohistochemistry. 4-5 μm sections were deparaffinized, rehydrated, and treated with 10 mM sodium citrate for heat induced antigen retrieval. After quenching endogenous peroxidase, and blocking with 2.5% normal goat serum (Vector Laboratories S-1012), sections were incubated overnight at 4° C. with primary antibody diluted in blocking solution as recommended by manufacturer (Cell Signaling). Controls were incubated with diluted normal rabbit IgG. After incubation with biotinylated secondary antibody diluted 1:250 in blocking serum for 45 min at rt, sections were incubated with VECTASTAIN ABC reagent for 30 min, and for development of the DAB chromogen the Quanto substrate was used. Slides were counter stained with Hematoxylin. Five fields per stained section per xenograft were photographed at 10X. CC3+ and pERK+ area and number of events per field were quantitated via automated image analysis (NIS Elements BR analysis ver. 4.13.04). Vessel number and lumen area per field used the same software with manual settings to trace vessel wall contours. Antibodies used are as follows: CC3: Cell Signaling #9661, use at 1:300. (Cleaved Caspase-3 (Asp175) Antibody. Rabbit polyclonal. pERK: Cell Signaling #4370: Phospho-p44/42 MAPK (Erk1/2) (Thr202/Tyr204) (D13.14.4E) XP Rabbit mAB. CD31 (PECAM-1) (D8V9E) XP Rabbit mAB (Cell signal # (Cell signal #77699). Normal rabbit IgG: Santa Cruz #sc-3888. Concentration is 50 μg/mL or 50 ng/μL. Prepared with 5 μg in 200 μL blocking solution. Goat Anti-Rabbit IgG Biotin Conjugate: Calbiochem #OS03B, Concentration=1.2 mg/mL. Recommended to be used for IHC at 1 μg/mL.

cleaved caspase 3 (CC3) = assay: Immunohistochemistry of tumor sections, cleaved caspase 3; parameters: species or system nu/nu mice; settings: mouse, in vivo
Description: as §1, with “(Cleaved Caspase-3 (Asp175) Antibody. Rabbit polyclonal. pERK: Cell Signaling #4370: Phospho-p44/42 MAPK (Erk1/2) (Thr202/Tyr204) (D13.14.4E) XP Rabbit mAB. CD31 (PECAM-1) (D8V9E) XP Rabbit mAB (Cell signal # (Cell signal #77699). Normal rabbit IgG: Santa Cruz #sc-3888. Concentration is 50 μg/mL or 50 ng/μL. Prepared with 5 μg in 200 μL blocking solution. Goat Anti-Rabbit IgG Biotin Conjugate: Calbiochem #OS03B, Concentration=1.2 mg/mL. Recommended to be used for IHC at 1 μg/mL.” left out

[2] = 72 h, read-out: IC50 proliferation MOH (Mut)
[3] = Table 11, pancreatic, read-out: IC50 (μM) MOH (Mut)

SMILES: COc1ccc([C@@H](C)N(CC=C(c2ccccc2)c2ccccc2)CCN2CCCC2)cc1 [NY0331, (R)-N-(1-(4-methoxyphenyl)ethyl)-3,3-diphenyl-N-(2-(pyrrolidin-1-yl)ethyl)prop-2-en-1-amine]
IC50 [1, 2]: 3.55 µM
IC50 [1, 3]: 4 µM
tumor growth at 1 mg/kg (MiaPaCa-2 tumors; 1 mg/kg intraperitoneally): significantly inhibited tumor growth
minimum effective dose on tumor growth relative to fendiline (MiaPaCa-2 tumors): more potent than fendiline
growth of MiaPaCa-2 xenografts (MiaPaCa-2 tumors; listed as 12h): suppressed; also recorded: strikingly decreased the rate of growth
pERK levels in tumors (pERK): reduced
cleaved caspase 3 (CC3) in tumors (cleaved caspase 3 (CC3)): increased

SMILES: COc1ccc([C@@H](C)N(CC=C(c2ccccc2)c2ccccc2)CCCN2CCN(C)CC2)cc1 [NY0335, (R)-N-(1-(4-methoxyphenyl)ethyl)-N-(3-(4-methylpiperazin-1-yl)propyl)-3,3-diphenylprop-2-en-1-amine]
IC50 [1, 2]: 3.77 µM
IC50 [1, 3]: 3.8 µM
growth of MiaPaCa-2 xenografts (MiaPaCa-2 tumors; listed as 22): suppressed; also recorded: strikingly decreased the rate of growth
pERK levels in tumors (pERK): reduced
cleaved caspase 3 (CC3) in tumors (cleaved caspase 3 (CC3)): increased

SMILES: COc1ccc([C@@H](C)N(CC=C(c2ccccc2)c2ccccc2)CCN2CCN(C)CC2)cc1 [NY0244, (R)-N-(1-(4-methoxyphenyl)ethyl)-N-(2-(4-methylpiperazin-1-yl)ethyl)-3,3-diphenylprop-2-en-1-amine]
IC50 [1, 2]: 3.67 µM
IC50 [1, 3]: 3.7 µM
minimum effective dose on tumor growth relative to fendiline (MiaPaCa-2 tumors): more potent than fendiline

IC50 [1, 2]: 11.1 µM
IC50 [1, 3]: 11.1 µM
SMILES: CC(NCCC(c1ccccc1)c1ccccc1)c1ccccc1 (centres unmarked) [Fendiline]
MiaPaCa2 xenograft size (MiaPaCa-2 tumors; 12.5 mg/kg intraperitoneally, days 28, 32 and 35): significantly smaller
growth of MiaPaCa-2 xenografts (MiaPaCa-2 tumors): inhibits the growth
pERK levels in tumors (pERK): no significant effect
